One molecule from patent US20140106387A1, “METHOD FOR CONTROLLING NAD(P)/NAD(P)H RATIO BY OXIDOREDUCTASE” (MD BIOALPHA CO., LTD., priority 2006, published 2014) can be followed below.

Assay [1] is described as follows: AMP/ATP, NAD+/NADH and NADP+/NADPH ratios in liver after intravenous administration. It counts as in vivo, mouse. The protocol: (§1) Acid extraction was used for analysis of an AOPN concentration in the cells and liver tissues. 400 μl of 6% HClO4 was added to the cells cultured in a 100 mm dish, whereas a two-fold volume of 6% HClO4 was added to the liver tissues which were then immediately homogenized. Each mixture was centrifuged at 14,000 g and 4° C. for 10 min, and the resulting supernatants were neutralized by addition of 1 M borate buffer (pH 11) containing 4 mM EDTA in an amount of 75%. Samples were aliquoted and stored at a temperature of −80° C.
Analysis of an RPN concentration in liver tissues was carried out using alkali extraction. An equal volume of ice-cold 0.5 M KOH was added to the liver tissues which were then immediately homogenized. Thereafter, a two-fold volume of ice-cold distilled water was added and mixed with the liver tissues for 2 min, and the mixture was centrifuged using an Amicon ultrafiltration membrane (MILLIPORE) at 14,000 g and 4° C. for 40 min. The thus-obtained filtrate was neutralized by addition of 1 M KH2PO4 (pH 6.5) in an amount of 10%. Samples were aliquoted and stored at a temperature of −70° C. Concentration determination was made within 72 hours.
A mobile phase was 100 mM ammonium acetate:MeOH (98:2, v/v), and preparations were filtered through a 0.22-μm Millipore filter. A flow rate was set to 0.8 mL/min and detection was made at 254 nm. Separation was carried out using a ZORBAX Bonus-RP C18 column (3.5 μm, 4.6×150 mm I.D., […]). The samples were maintained at 4° C. in a thermostatted autosampler until they were loaded onto the column.
In order to assay ATP, ADP, AMP, NAD and NADP levels, 450 μl of 5 mM ammonium acetate was added to 50 μl of a liver sample extracted with perchloric acid (HClO4) which was then diluted ten times. Diluted samples were vortexed and mixed for 1 min, and the mixture was filtered through a 0.2 μm nylon syringe filter (Whatman, Brentford, UK). Then, 5 μl of each aliquot was injected into a HPLC system. Each standard solution (50 μl) for these analytes was added to 50 μl of an extraction solution containing 2-chloroadenosine (internal standard) and 400 μl of 5 mM ammonium acetate, and mixed and filtered in the same manner as in the above samples. For analysis of NADH and NADPH, each 100 μl of liver samples extracted with a potassium hydroxide (KOH) solution was diluted twice with an equal amount of a 5 mM ammonium acetate (KOH solution for standards). HPLC system consists of an Agilent 1100 series vacuum degasser, a binary pump, an autosampler, a thermostatted column compartment, and a DAD detector (Agilent Technologies, Palo Alto, Calif.). Adenine and nucleotide analogues were separated by Waters XTena MS C18 2.1×150 mm, 3.5 μm column (Waters, Milford, Mass., USA) chromatography using a gradient method. A mobile phase for adenine and nucleotide analogues was 5 mM ammonium acetate (A) and methanol (B). NAD^+-related compounds were separated by linear gradient elution of initial 98% (A) to final 70% (B) at a time point of 8 min. The mobile phase was developed at 70% (B) for 7 min. Finally, the mobile phase was returned to 98% (A) at a point of 16 min, and reequilibrated to 98% (A) for 12 min. A flow rate was set to 0.2 mL/min throughout the entire period of time. An injection volume was 5 μl. Electrospray-ionization mass spectrometry (ESI-MS) was carried out in a positive ion mode using MDS Sciex API 4000 Triple Quadrupole Mass Spectrometer (Applied Biosystems, Ontario, Calif.).
5 mg/kg of pyrano-1,2-naphthoquinone was intravenously administered to a tail vein of DIO mice and changes in an NADH amount and an NAD^+/NADH ratio of liver tissues were examined for 6 hours.

Assay [2] in a line: glucose tolerance and insulin sensitivity in OLETF rats. It counts as in vivo, rat. The conditions noted are these: Days 3 and 21 after treatment. The protocol:
Glucose tolerance test (GTT) was carried out for 12 h-fasted mice by a known method. As described above, 12 h-fasted mice received an insulin stimulation test
FIG. 45 is a graph showing glucose tolerance and insulin sensitivity measured in vehicle-treated ° LEIF rats and βL-treated OLETF rats. Glucose and insulin were i.p. and i.v. injected, respectively, and the blood glucose level was measured.

The subject of another assay is AMPKα, ACC. Briefly: AMPKα and ACC phosphorylation in tissues of DIO mice (Western blot). It counts as in vivo, mouse. The protocol:
HepG2 (human hepatoma cell line), HEK293 (Human embryonic kidney cell line), and C2C12/L6 myoblasts were purchased from American Type Culture Collection (ATCC, Manassas, Va., USA). LKB−/− MEFs were purchased from R.A. DePinho. Rat ventricular myocytes were enzymatically isolated from the heart of adult […] by a known method. Phosphorylation of AMPK (Thr172) and ACC (Ser79) was measured by Western blot analysis using Cell Signaling Technologies and pan- and phospho-specific antibodies (Upstate Biotechnology, Inc., Lake Placid, N.Y.).
Using various proteins extracted from liver, gonadal fat (WAT), EDL and soleus muscle of DIO mice treated with a vehicle or βL for 2 days, T172 phosphorylation of AMPKα and S79 phosphorylation of ACC in each tissue were measured by Western blot analysis.
FIG. 26 is a photograph showing effects of an NQO1 activator on AMPK & ACC phosphorylation in C57BL/6 mice. In order to investigate anti-obesity effects of an NQO1 activator, the NQO1 activator was administered daily to DIO mice at a dose of 50 mg/kg via an oral route, and effects of the NQO1 activator on phosphorylation of AMPK and ACC, which play an important role in energy metabolism and lipogenesis in the liver and gonadal adipose tissues, were examined. […] Phosphorylated AMPK is believed to activate metabolism associated with energy. Whereas, it is believed that ACC, which is affected by activation of AMPK, is phosphorylated and lipogenic activity thereof is then inhibited, which will then exert some effects on lipid metabolism including inhibition of obesity.

In the next assay the test system is HepG2 cells. Briefly: intracellular ATP, ADP and AMP levels by LC-MS in HepG2. The format is cell-based, human. To be noted: HepG2, 10 μM, 2 hours. The protocol: Samples were analyzed using an Agilent 1100 series LC/MSD system equipped with G1322A degasser, G1312A binary pump, G1315A photo-diode-array detector, 59987A electrospray interface and 5989B mass spectrometer. ES-MS analysis was performed using an Agilent 5989 electrospray (ES) mass spectrometer (MS) with an Agilent Atmospheric Pressure Ionization (API) interface fitted with a hexapole ion guide. Chromatogram was automatically integrated with the aid of Chemstation software, and concentrations were determined using a standard calibration curve.
as §1
A mobile phase was 100 mM ammonium acetate:MeOH (98:2, v/v), and preparations were filtered through a 0.22-μm Millipore filter. A flow rate was set to 0.8 mL/min and detection was made at 254 nm. Separation was carried out using a ZORBAX Bonus-RP C18 column (3.5 μm, 4.6×150 mm I.D., Waters, USA). […]

Another assay relates to MN9D cells. Briefly: intracellular ATP concentration in dopaminergic neuronal cells. The format is cell-based. To be noted: 5 μM. The protocol:
Dopaminergic (MN9D) and non-dopaminergic (MN9X) neuronal cells were treated with 5 μM pyran-1,2-naphthoquinone and the ATP concentration was periodically measured.

Setting [3] is: 5 mg/kg intravenous, liver of DIO mice.

Consider `CC1(C)CCC2=C(O1)c1ccccc1C(=O)C2=O` [βL, 2,2-Dimethyl-3,4-dihydro-2H-benzo[h]chromene-5,6-dione], for which, in assay [1] (5 mg/kg intravenous, liver), the “numerical value of NADP+” value is “no significant change” and the “time point of maximum NAD+/NADPH ratio” value is reported as 120 min. In addition, in assay [1] (setting [3]), the “time point of highest AMP/ATP ratio” value is reported as 30 min; the “time point of maximum NAD+ amount and NAD+/NADH ratio” value came to 120 min; the “time point of maximum increase of AMP concentration” value worked out at 30 min; the “time point of recovery of AMP concentration to a normal level” value came out at 120 min. In addition, the “time point of recovery of AMP/ATP ratio to the initial state” value in assay [1] (setting [3]) worked out at 360 min. Further, in assay [1] (DIO mice), the “changes in the AMP/ATP and NAD+/NADP ratios” value was “significant changes”. In assay [1] (intravenous (IV) injection), the “AMP/ATP and NAD+/NADH ratios in the liver compared to control group” value was “higher”. In assay [2], the “glucose tolerance and insulin sensitivity” value is “improvements in glucose tolerance and insulin sensitivity”. For the same molecule, in the assay on AMPKα, ACC (C57BL/6 DIO mice, 50 mg/kg daily, oral), the “phosphorylation of AMPK and ACC in the gonadal and liver tissues” value was “has an effect on phosphorylation of AMPK and ACC”. Moreover, the “S79 phosphorylation of ACC and T172 phosphorylation of AMPKα” value in the assay with AMPKα, ACC (gonadal fat of DIO mice treated for 2 days) is given as “no such effects”. Besides, in the assay on AMPKα, ACC (liver and muscle (EDL, Soleus) of DIO mice treated for 2 days), the “S79 phosphorylation of ACC and T172 phosphorylation of AMPKα” value is reported as “increased”. The “time at which ATP amount was minimum and AMP amount maximum” value with HepG2 cells came out at 30 min. Also, the “intracellular ATP concentration” value in the assay on MN9D cells is on record as “decreased”.
